Tests used:
[1] = person treated with GEODON; cited from earlier work
[2] = cited from earlier work
[3] = Case study: mood and behavior of a patient with Bipolar Affective Disorder NOS on aripiprazole; format: in vivo, human; details: person, BPAD NOS; aripiprazole 5 mg once daily; 2 weeks later
Description: A person presented with behavioral problems.
The time of onset for childhood BPAD is frequently during the later years of the latency period, and typically includes rapid cycling, with disturbances in sleep, behavioral issues including aggression, grandiosity, and hyper-sexuality. At the time of evaluation, it was difficult to know if the patient also had co-occurring ADHD, combined subtype and Oppositional Defiant Disorder. Bipolar Affective Disorder, NOS appeared to be the more parsimonious diagnosis.
Additionally they were asked to keep a mood chart.

[4] = metformin 500 mg twice daily together with aripiprazole, over a 3-month period

For `O=C1Cc2cc(CCN3CCN(c4nsc5ccccc45)CC3)c(Cl)cc2N1` [GEODON], the weight gain [1] is listed as “significant weight gain”.
In the case of `CN(C)C(=N)NC(=N)N.Cl` [Metformin hydrochloride, N,N-dimethylimidocarbonimidic diamide hydrochloride], the “pH of a 1% aqueous solution” value [2] is listed as 6.68.
For `O=C1CCc2ccc(OCCCCN3CCN(c4cccc(Cl)c4Cl)CC3)cc2N1` [aripiprazole, 7-[4-[4-(2,3-dichlorophenyl)-1-piperazinyl]butoxy]-3,4-dihydrocarbostyril], the “behavioral outcome on return visit” value [3] was “much more settled, with fewer outbursts, and no behavioral concerns”.
In the case of `CN(C)C(=N)N=C(N)N` [metformin, N,N-dimethylimidocarbonimidic diamide], the “Body Mass Index (BMI) after treatment” value ([4]; BMI from 24.9) is reported as 22.6 and the “decrease in body weight” value [4] is reported as “seven”.

Source: patent publication US20060246131A1, “Use of metformin to counteract weight gain associated with psychotropic medications” (priority 2005, published 2006)
